Laboratory results published in US4675319A, “Antianaphylactic and antibronchospastic piperazinyl-(N-substituted phenyl)carboxamides, compositions and use” (Recordati S. A. Chemical and Pharmaceutical Company, priority 1985, dated 1987).
Where a name gives a salt, the structure may show the parent alone. Read-outs that look alike come from different tables or passages of the source.

Tests used:
[1] = Acute toxicity LD50 in the mouse (method of Weil); settings: in vivo
Text: (§1) The novel compounds of the present invention are characterized by high antianaphylactic and antibronchospastic activity and by a low toxicity. The LD50 of the novel piperazine derivatives has been determined in the mouse, both ip and per os, following the method described by C. S. Weil, Biometrics, 8, 249 (1952). In order to evaluate the antianaphylactic activity of said novel compounds, the method of Goose and Blair was followed, in which passive cutaneous anaphylaxis (PCA) was induced in the rat with homologous antibodies [Immunology, 16, 749, (1969)].
(§2) In the Table which follows, the results obtained utilizing the above tests are reported. The LD50 and the DE50 in the PCA test are expressed in […]. The DE50 for the antibronchospastic activity (BSP) is expressed in μm/kg i.v. (bronchospasm induced by histamine (H) and acetylcholine (A)). In the TXA2 test, (C) is the concentration in μg/ml, whereas (I%) denotes the maximal inhibition percentage. In the PLA test, the DE50 is expressed in μM/kg i.v. (evaluated 5 and 10 minutes after administration).

[2] = tested on: passive cutaneous anaphylaxis (PCA); experiment: Passive cutaneous anaphylaxis (PCA) in the rat with homologous antibodies (method of Goose and Blair); type: in vivo; settings: 0.5 h, inhibition of spots areas, 30 minutes after challenge
Text: as §1
Female albino rate were immunized intramuscularly with egg albumin and intraperitoneally with Haemophylus pertussis vaccine. Twelve days after treatment, the animals were bled and sera thus obtained were injected intradermally into another group of rats. Twenty-four hours later, the animals were challenged with an i.v. solution of ovoalbumin and Evans blue dye, and sacrificed after 30 minutes. The test drugs were given by different routes of administration and at different times before the challenge. Inhibition of spots areas (ED50) was determined.
as §2

[3] = tested on: bronchospasm induced by histamine; experiment: Inhibition of bronchospasm (BSP) induced by histamine in anaesthetized guinea pig (Konzett and Roessler); type: in vivo; settings: Cavia porcellus, iv, 1 min, histamine 0.5-25 μg/kg i.v., one minute after injection of drug, read-out: BSP, ED50 H
Protocol: (§3) The antibronchospastic activity was determined according to the method of Konzett and Roessler, Arch., Exp. Path. Pharmakol., 195, 71 (1940), entailing the inhibition of bronchospasm induced in anaesthesized guinea pig by histamine and acetylcholine. For this purpose, the bronchospasms were induced by administering intravenously to the animals 0.5-25 μg/kg of hystamine or 2.5-10 μg/kg of acetylcholine. Inhibition (ED50) was determined one minute after injection of the drug under test.
as §2

[4] = tested on: bronchospasm induced by acetylcholine; experiment: Inhibition of bronchospasm (BSP) induced by acetylcholine in anaesthetized guinea pig (Konzett and Roessler); type: in vivo; settings: Cavia porcellus, iv, 1 min, acetylcholine 2.5-10 μg/kg i.v., one minute after injection of drug
Protocol: as §3, §2

TXA2 = TXA2 inhibition in perfused guinea-pig lungs challenged with bradykinin (method of Berti et al); settings: C = 10 μg/ml, bradykinin 0.25-0.5 μg
Protocol: The TXA2 inhibition was evaluated according to the method of Berti et al Brit. J. Pharmacol., 68, 467 (1980). Lungs from female or male guinea-pigs were perfused through the pulmonary artery with Krebs bicarbonate (5 ml/min, 37° C.). The pulmonary outflow superfused strips of rabbit mesenteric artery and rabbit aorta in cascade, in order to monitor TXA2 activity. These tissues were superfused with a mixture of receptor antagonist and indomethacin to […] their selectivity and sensitivity. Lungs were challenged with a single injection of bradykinin (0.25-0.5 μg) which is known to increase generation of TXA2 from the pulmonary tissue. The novel compounds of the invention were perfused at different concentrations through the lungs 30 and 60 minutes before agonists.
as §2

[5] = tested on: passive lung anaphylaxis (PLA); experiment: Passive lung anaphylaxis (PLA): antigen induced bronchoconstriction in passively sensitized rat (method of Greenberg et al); type: in vivo; settings: iv, i.v.
Protocol: Inhibition of passive lung anaphylaxis (PLA) was studied in a model of antigen induced bronchoconstriction in sensitized rat, according to the method described by Greenberg et al, Can. J. Physiol. Pharmacol., 57, 48 (1979). Female albino rate were passively sensitized by intravenous injection of homologous anti-egg albumin serum. Twenty-four hours later the rats were anaesthetized with pentobarbital (35 mg/kg i.p.) and spontaneous respiration was arrested by administration of tubocurarine (0.75 mg/kg i.v.).
Bronchocostriction was induced by egg albumin intravenously administered and measured by the Konzett and Roessler method Arch. Exp. Path. Pharmakol., 195, 71, (1940). The compounds were injected intravenously one minute before antigen challenge. The inhibitory effect (ED50) was evaluated 5 and 10 minutes after i.v. administration of the drugs under test.
as §2

[6] = 5 min, evaluated 5 minutes after administration, read-out: PLA, ED50 5'
[7] = 10 min, evaluated 10 minutes after administration, read-out: PLA, ED50 10'

| Compound | LD50 ([1]; ip, read-out: LD50 ip) [µmol/kg] | LD50 ([1]; po, per os, read-out: LD50 os) [µmol/kg] | ED50 [2] [µmol/kg] | ED50 [3] [µmol/kg] | ED50 [4] [µmol/kg] | TXA2 I % (maximal inhibition percentage) (TXA2) [%] | ED50 [5, 6] [µmol/kg] | ED50 [5, 7] [µmol/kg] |
| --- | --- | --- | --- | --- | --- | --- | --- | --- |
| CN(C(=O)CCN1CCN(C(c2ccccc2)c2ccccc2)CC1)c1cccc(N)c1 [Compound 6, 3-(4-benzhydryl-1-piperazinyl)-N,3-aminophenvl-N-methylpropionamide] | > 2330 | > 7000 | 10 | 0.12 | 0.4 | 0.8 | 0.65 | 0.69 |
| CN(C)c1ccc(NC(=O)CCN2CCN(C(c3ccccc3)c3ccccc3)CC2)cc1 [Compound 3, 3-(4-benzhydryl-1-piperazinyl)-N,4-dimethylaminophenylpropionamide] |  | > 7000 | 25 | 1.1 | 0.8 |  | 0.02 | 0.02 |
| CN(C)c1ccc(NC(=O)CCCN2CCN(C(c3ccccc3)c3ccccc3)CC2)cc1 [Compound 8] | 230 | 430 | 10 | 1.1 | > 3 |  | 0.84 | 0.84 |
| CNc1cccc(NC(=O)CCN2CCN(C(c3ccccc3)c3ccccc3)CC2)c1 [Compound 1, 3-(4-benzhydryl-1-piperazinyl)-N,3-methylaminophenylpropionamide] | 240 | 580 | 13 | 0.25 |  |  |  |  |
| Nc1cccc(NC(=O)CCN2CCN(C(c3ccccc3)c3ccccc3)CC2)c1 [Compound 4, 3-(4-benzhydryl-1-piperazinyl)-N,3-aminophenylpropionamide] |  | 5000 | 8 | 0.21 | 0.4 | 47 | 0.04 | 0.08 |
| CNC(=O)Nc1ccc(NC(=O)CCN2CCN(C(c3ccccc3)c3ccccc3)CC2)cc1 [Compound 7, 3-(4-benzhydryl-1-piperazinyl)-N,4-methylureidophenylpropionamide] | 1750 | > 5900 | 73 |  |  |  |  |  |
| CN(C)c1cccc(NC(=O)CCN2CCN(C(c3ccccc3)c3ccccc3)CC2)c1 [Compound 2, 3-(4-benzhydryl-1-piperazinyl)-N,3-dimethylaminoophenylpropionamide trihydrochloride hemihydrate] | 260 | 340 | > 69 |  |  |  |  |  |
| Nc1ccc(NC(=O)CCN2CCN(C(c3ccccc3)c3ccccc3)CC2)cc1 [Compound 5, 3-(4-benzhydryl-1-piperazinyl)-N,4-aminophenylpropionamide] |  | 7200 | 28 | 0.23 |  |  |  |  |
